This is an account of results in patent US20140088052A1, “CHALCONE DERIVATIVES AS NRF2 ACTIVATORS” (THE JOHNS HOPKINS UNIVERSITY, priority 2011, published 2014).

What all share (type): cell-based, human
Data set [1] relates to Nrf2. As to the kind of experiment: Nrf2-regulated gene expression with or without N-acetyl-cysteine in Beas-2B cells. As to conditions: NAC 10 mM alone, 24 h. How it is done: Cells were harvested 24 h after the treatment and the Nrf2-driven expression of NQO1, HO-1, and GCLM was quantified. β-actin was used for normalization. Data are representative of three independent experiments. Values shown are mean±SD of triplicate wells (P≦0.05);
The activation of Nrf2 by various electrophiles and compounds that are Michael acceptors is attributed to changes in ROS production and or redox environment and or direct cysteine modification in Keap1. Nguyen, T., et al., The Nrf2-antioxidant response element signaling pathway and its activation by oxidative stress. J. Biol. Chem. 2009, 284, 13291-13295; McMahon, M., et al., Keap1 perceives stress via three sensors for the endogenous signaling molecules nitric oxide, zinc, and alkenals. Proc. Natl. Acad. Sci. U.S.A. 2010, 107, 18838-18843. Whether 2b activates Nrf2 by generating ROS or redox changes also was examined.

For data set [2], the system named is Nrf2. Kind of data set: Expression of Nrf2-regulated genes GCLM and NQO1 by qRT-PCR in Beas-2B cells (screen). Particulars: Homo sapiens, BEAS-2B, 16 h. As for the experimental part: To investigate the potency of the presently disclosed chalcone derivatives to activate Nrf2, the expression of antioxidant genes, GCLM and NADPH-NQO1, two well characterized transcriptional targets of Nrf2, were measured as surrogate markers. By “marker” is meant any protein or polynucleotide having an alteration in expression level or activity that is associated with a disease, disorder, or condition. It has been previously shown that oxidants or small molecule activators of Nrf2 increase GCLM and NQO1 in cells or tissues of wild-type, but not in Nrf2-deficient mice. Osburn, W. O., et al., Genetic or pharmacologic amplification of Nrf2 signaling inhibits acute inflammatory liver injury in mice. Toxicol. Sci. 2008, 104(1), 218-227. […]
RNA was isolated and gene expression was measured after 16 h.
Total RNA was extracted from cells/tissue using Qiagen RNeasy kit (Qiagen Corporation, Valencia, Calif.) and reverse transcription was performed by using random hexamers and MultiScribe reverse transcriptase according to the manufacturer's recommendations (Applied Biosystems, Foster City, Calif., USA). Quantitative real-time RT-PCR analyses of Nrf2, NQO1, HO1, and GCLM were performed by using Assay-on-Demand primers and probe sets from Applied Biosystems. Assays were performed using the ABI 7000 Taqman system (Applied Biosystems, Foster City, Calif.). β-actin was used for normalization.
On the technique in general: Real-time PCR tracks product formation cycle by cycle.

In another data set the test system is Beas-2B cells. Kind of data set: Cell viability / cytotoxicity (MTT assay) in Beas-2B cells. Particulars: 24 h, DMSO = 100. As for the experimental part: Concurrent with the gene expression analysis, the cytotoxicity of the chalcone derivatives was determined using the MTT assay.
Mad. Chem. 2007, 15, 2952-2962. […] Four hours before the end of incubation, the medium was removed and 100 μL of MTT (5 mg/mL in serum free medium) was added to each well. The MTT was removed after 4 h, cells were washed with PBS, and 100 μL DMSO was added to each well to dissolve the water-insoluble MTT-formazan crystals. The absorbance was recorded at 570 nm in a plate reader (Molecular Devices, Sunnyvale, Calif.).
A general note: Tetrazolium dyes change colour on reduction, which living cells bring about.

Where [3] appears, read: DMSO = 1.0 (Table 2), read-out: Relative Fold Change GCLM.
Setting [4] is: DMSO = 1.0 (Table 2), read-out: Relative Fold Change NQO1.
Setting [5] is: DMSO = 1 (Table 3), read-out: Relative Fold Change GCLM.
Where [6] appears, read: DMSO = 1 (Table 3), read-out: Relative Fold Change NQO1.

Where two headings read alike, the source gives them in different places.

Consider `CC(=O)N[C@@H](CS)C(=O)O` [NAC, N-acetyl-cysteine, reference compound], for which the “induction of Nrf2-regulated genes, NAC alone” value with Nrf2 [1] is recorded as “no induction of Nrf2-regulated genes”.

For `O=C(/C=C/c1ccccc1C(F)(F)F)c1ccccc1` [Compound 2a, (E)-1-phenyl-3-(2-(trifluoromethyl)phenyl)prop-2-en-1-one], the fold induction at 10 µM with Nrf2 [2] (setting [3]) turned out to be 5; with Nrf2 [2] (setting [4]), 5.3; in the data set on Nrf2 [2] (setting [5]), 5; in the data set on Nrf2 [2] (setting [6]), 5.3. Besides, in the data set on Beas-2B cells, the “% Cell Viability” value is reported as 144.8%.

Turning to `COc1ccc(OC)c(C(=O)/C=C/c2ccc(C(F)(F)F)cc2)c1` [Compound 4g], the fold induction at 10 µM with Nrf2 [2] (setting [3]) turned out to be 4.1; in the data set on Nrf2 [2] (setting [4]) it was 4; in the data set on Nrf2 [2] (setting [5]), 4.1; in the data set on Nrf2 [2] (setting [6]) it was 4. In addition, in the data set on Beas-2B cells, the “% Cell Viability” value came to 91.6%.

In the case of `COc1ccc(C(=O)/C=C/c2ccc(C(F)(F)F)cc2)cc1` [Compound 4d, (E)-1-(4-methoxyphenyl)-3-(4-(trifluoromethyl)phenyl)prop-2-en-1-one], the fold induction at 10 µM with Nrf2 [2] (setting [3]) came out at 3.5; in the data set on Nrf2 [2] (setting [4]) it was 4.6; in the data set with Nrf2 [2] (setting [5]), 3.5; with Nrf2 [2] (setting [6]) it was 4.6. Besides, the “% Cell Viability” value in the data set with Beas-2B cells is on record as 104.1%.

Regarding `COc1ccc(C(=O)/C=C/c2ccc(C(F)(F)F)cc2)c(OC)c1` [Compound 4e, (E)-1-(2,4-dimethoxyphenyl)-3-(4-(trifluoromethyl)phenyl)prop-2-en-1-one], the fold induction at 10 µM with Nrf2 [2] (setting [3]) is 5; in the data set with Nrf2 [2] (setting [4]), 4.8; in the data set with Nrf2 [2] (setting [5]), 5; in the data set with Nrf2 [2] (setting [6]), 4.8. In addition, the “% Cell Viability” value in the data set on Beas-2B cells came out at 92.6%.

Turning to `COc1ccc(C(=O)/C=C/c2ccccc2C(F)(F)F)c(OC)c1` [Compound 2e, (E)-1-(2,4-dimethoxyphenyl)-3-(2-(trifluoromethyl)phenyl)prop-2-en-1-one], the fold induction at 10 µM in the data set on Nrf2 [2] (setting [3]) turned out to be 5.4; in the data set on Nrf2 [2] (setting [4]) it was 4.5; in the data set on Nrf2 [2] (setting [5]) it was 5.4; in the data set on Nrf2 [2] (setting [6]), 4.5. In addition, the “% Cell Viability” value in the data set with Beas-2B cells is reported as 105%.

`C[S+]([O-])CCCCN=C=S` (centres unmarked) [Sulforaphane, reference compound]: the fold induction at 10 µM in the data set on Nrf2 [2] (setting [3]) amounted to 2.7; in the data set on Nrf2 [2] (setting [4]) it was 3.6; in the data set on Nrf2 [2] (setting [5]) it was 2.7; with Nrf2 [2] (setting [6]), 3.6. In addition, the “% Cell Viability” value in the data set with Beas-2B cells is on record as 97.3%.

On to `COc1ccccc1C(=O)/C=C/c1ccc(C(F)(F)F)cc1` [Compound 4b, (E)-1-(2-methoxyphenyl)-3-(4-(trifluoromethyl)phenyl)prop-2-en-1-one], for which the fold induction at 10 µM in the data set with Nrf2 [2] (setting [3]) worked out at 4.3; in the data set on Nrf2 [2] (setting [4]), 5.4; with Nrf2 [2] (setting [5]), 4.3; in the data set with Nrf2 [2] (setting [6]) it was 5.4. The “% Cell Viability” value in the data set with Beas-2B cells worked out at 91%.

Take `COc1cccc(OC)c1C(=O)/C=C/c1ccccc1[N+](=O)[O-]` [Compound 5f]: the fold induction at 10 µM in the data set with Nrf2 [2] (setting [3]) was 4.1; in the data set with Nrf2 [2] (setting [4]), 3.7; in the data set with Nrf2 [2] (setting [5]), 4.1; in the data set on Nrf2 [2] (setting [6]), 3.7. Further, the “% Cell Viability” value with Beas-2B cells came out at 75.8%.
